Measurements reported in patent publication US7728034B2, “Treating neurological disorders using selective antagonists of persistent sodium current” (Allergan, Inc., priority 2003, dated 2010).

Experiments:
[1] = test system: sound-induced seizures in DBA mice; assay: Audiogenic seizure (AGS) model in DBA/2 mice; type: in vivo, mouse
Text: This study examined the anti-seizure efficacy of Compound 1 against to reference compounds (Diazepam and Sipatrigine) using the audiogenic mouse model as the test platform.
DBA mice are well established in the literature as a model for audiogenic seizures (AGS). This genetically based model is attractive for testing potential therapeutics in that no treatment protocol is required to create the condition. It is classified as inherited idiopathic epilepsy with no known associated organic disease.
The AGS response in these mice consists of a progressive sequence of behaviors. The latency to onset may vary from 2 to 15 seconds, and is age variant. The initial wild running phase may be divided into an early running phase that varies from 5 tp 20 seconds, followed by a wild running phase that continues for 10-20 seconds. Wild running may progress to tonic/clonic seizures, with loss of righting ability, respiratory suppression and death.
We a scoring system to quantify the effects of the test compounds on the induction of seizures. The behavioral sequence was assigned ascending numerical values (Table 1), and the highest numerical value reached by an animal was that animal's score.
Animals. Male DBA/2 mice were obtained from Jackson Laboratories at 21 day post partum. The animals were acclimated for 1 or 2 days prior to use. Individual animal weights were recorded immediately before treatment. Surviving animals were euthanized within three days of completion of testing.
Seizure Induction. Mice were placed in a test chamber (25 cm i.d.) and exposed to pure tone sound of 11 kHz at a minimum of 116 dB for approximately 60 s until a sequential seizure response, consisting of an early wild running phase, followed by generalized myoclonus and tonic flexion and extension, was obtained. Non-responders were challenged up to five times. Ten animals were obtained by this method for each intended treatment group, with a standard deviation in their maximum score of less than 25%. The acoustic stimulus signal was produced using a signal generator and projected via four high-frequency ceramic speakers mounted on the roof of the chamber. Chamber calibration was performed daily to ensure consistent sound pressure. AGS behaviors were videotaped for later analysis.
I.P. injections: The 10 animals in each treatment group were injected intra-peritoneally with the test drug in a volume of 10 mL/kg of body weight. Injections were 60 min prior to sound challenge.
Data analyses: Data were tested for normal distribution, and (when normal) were analyzed using ANOVA followed by Student's t test. When the data were not normally distributed, analysis was with the Mann-Whitney rank sum test. Significance was set at p<0.05.

[2] = Estimated plasma concentration after i.p. dosing in the AGS study; type: in vivo; settings: DBA, mouse, intraperitoneal, 1 mg/kg i.p., 60 minutes after dosing
[3] = target: T1, HEK cells expressing Nav1.3 (HEK-Nav1.3) (Homo sapiens, UniProt Q9NY46); assay: High-throughput VIPR FRET assay of persistent sodium current-dependent depolarization with K+ counter-screen; type: cell-based; settings: tetracaine 10 μM, FIG. 2
T1 construct: expressed in transfected cells
T1 sequence (Q9NY46 whole entry): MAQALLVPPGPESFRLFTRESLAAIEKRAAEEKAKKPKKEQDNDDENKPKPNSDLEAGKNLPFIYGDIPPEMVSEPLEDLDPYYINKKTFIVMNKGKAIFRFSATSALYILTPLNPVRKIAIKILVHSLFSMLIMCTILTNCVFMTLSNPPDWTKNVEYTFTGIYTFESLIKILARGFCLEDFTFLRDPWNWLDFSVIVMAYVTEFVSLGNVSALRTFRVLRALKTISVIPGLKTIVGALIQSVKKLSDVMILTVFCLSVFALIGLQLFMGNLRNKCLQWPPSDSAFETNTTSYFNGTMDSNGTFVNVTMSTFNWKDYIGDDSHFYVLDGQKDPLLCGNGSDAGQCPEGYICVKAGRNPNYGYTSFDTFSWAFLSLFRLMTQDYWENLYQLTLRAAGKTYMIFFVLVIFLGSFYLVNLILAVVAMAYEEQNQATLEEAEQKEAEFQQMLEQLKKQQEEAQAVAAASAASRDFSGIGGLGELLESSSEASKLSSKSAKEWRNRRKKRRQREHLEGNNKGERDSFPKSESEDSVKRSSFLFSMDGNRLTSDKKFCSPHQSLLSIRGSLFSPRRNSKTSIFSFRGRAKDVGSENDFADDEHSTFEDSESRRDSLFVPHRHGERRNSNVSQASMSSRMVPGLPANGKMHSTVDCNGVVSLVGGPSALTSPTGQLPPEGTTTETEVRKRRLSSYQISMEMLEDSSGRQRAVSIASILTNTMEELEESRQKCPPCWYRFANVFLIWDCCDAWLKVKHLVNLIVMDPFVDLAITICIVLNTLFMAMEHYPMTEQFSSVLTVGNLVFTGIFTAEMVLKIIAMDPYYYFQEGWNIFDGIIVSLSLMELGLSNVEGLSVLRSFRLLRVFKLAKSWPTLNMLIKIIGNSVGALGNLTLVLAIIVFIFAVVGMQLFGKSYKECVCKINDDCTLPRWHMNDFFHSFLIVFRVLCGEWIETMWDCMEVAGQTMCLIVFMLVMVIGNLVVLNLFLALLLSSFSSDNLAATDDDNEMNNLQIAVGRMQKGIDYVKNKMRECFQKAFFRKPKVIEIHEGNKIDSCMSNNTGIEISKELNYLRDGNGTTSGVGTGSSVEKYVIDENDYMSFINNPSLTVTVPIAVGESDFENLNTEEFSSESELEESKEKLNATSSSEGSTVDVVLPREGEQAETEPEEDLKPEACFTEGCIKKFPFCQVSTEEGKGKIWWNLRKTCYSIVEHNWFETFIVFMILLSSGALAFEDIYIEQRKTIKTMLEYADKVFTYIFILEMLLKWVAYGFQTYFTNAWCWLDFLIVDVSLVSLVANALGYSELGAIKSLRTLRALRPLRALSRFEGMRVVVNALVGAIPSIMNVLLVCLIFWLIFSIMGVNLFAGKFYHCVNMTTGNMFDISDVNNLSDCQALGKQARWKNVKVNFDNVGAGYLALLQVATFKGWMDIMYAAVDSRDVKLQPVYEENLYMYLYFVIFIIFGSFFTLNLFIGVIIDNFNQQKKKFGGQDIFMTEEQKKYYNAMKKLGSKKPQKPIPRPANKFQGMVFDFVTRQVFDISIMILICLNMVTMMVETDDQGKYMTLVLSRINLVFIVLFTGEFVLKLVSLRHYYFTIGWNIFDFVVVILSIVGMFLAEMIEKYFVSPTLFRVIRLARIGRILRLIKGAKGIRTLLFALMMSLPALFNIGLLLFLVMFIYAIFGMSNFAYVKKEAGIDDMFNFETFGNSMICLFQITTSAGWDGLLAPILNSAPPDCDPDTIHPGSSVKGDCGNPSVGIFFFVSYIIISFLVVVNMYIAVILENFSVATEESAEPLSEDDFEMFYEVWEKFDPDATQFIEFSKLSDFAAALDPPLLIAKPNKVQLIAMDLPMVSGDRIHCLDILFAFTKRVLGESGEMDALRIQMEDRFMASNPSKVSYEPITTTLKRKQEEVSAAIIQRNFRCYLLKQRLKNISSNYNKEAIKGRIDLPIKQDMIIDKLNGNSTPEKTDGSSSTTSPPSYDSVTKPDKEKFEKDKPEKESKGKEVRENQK

[4] = DBA mice, 60 minutes after dosing, Compound 1 1 mg/kg, references at predicted doses
[5] = DBA/2 mice, i.p. 60 min before sound challenge, scale 1-8, Diazepam 0.15, Sipatrigine 3, Compound 1 1 mg/kg, control 4.8 ± 1.9

In the case of `CN1C(=O)CN=C(c2ccccc2)c2cc(Cl)ccc21` [Diazepam], the “Seizure score (AGS), Mean ± s.d.” value ([1]; mouse, in vivo) is reported as 3.1 ± 1.1 and the “behavioral/seizure response to sound-induced seizures” value (shortened to “behavioral/seizure response”) ([1]; mouse, in vivo, 1 mg/kg) is reported as “effective”.
In the case of `CN1CCN(c2ncc(-c3cc(Cl)cc(Cl)c3Cl)c(N)n2)CC1` [Sipatrigine], the “behavioral/seizure response” value [1, 4] is reported as “effective” and the “Seizure score (AGS), Mean ± s.d.” value [1, 5] is reported as 3.3 ± 1.7.
For `O=C(NCCCCc1ccccc1)c1cccs1` [Compound 1, thiophene-2-carboxylic acid (4-phenyl-butyl)-amide], the concentration at 60 min [2] was roughly 5 µM, the “behavioral/seizure response” value [1, 4] was “significantly reduced” and the “Seizure score (AGS), Mean ± s.d.” value [1, 5] was 3.2 ± 2.3.
With `CCCCNc1ccc(C(=O)OCCN(C)C)cc1` [Tetracaine] the “K+-dependent change in Rf/Ri (depolarization, counter-screen)” value [3] was “not” and the “Na+-dependent change in Rf/Ri (depolarization)” value [3] was “inhibited”.
